Results reported in patent US20180334540A1, “Polymeric Derivative Of Macrolide Immunosuppressant” (Nippon Kayaku Kabushiki Kaisha, priority 2015, published 2018).

How the values were obtained:
[1] = Blood concentration profile in rats; assay type: in vivo; settings: female, SD, whole blood, iv, tacrolimus in rat blood, 5 mg/kg once i.v. caudal vein, Examples: tacrolimus cut out from micelles
Description: Blood Concentration Profile in Rats
The results for Examples 1 to 4 and tacrolimus are presented in FIG. 3, and the results for Examples 5 to 8 and tacrolimus are presented in FIG. 4.

[2] = system: DA rats; settings: rat, in vivo, iv, 20 mg/kg
Description: (§1) Female DA rats (Japan SLC, Inc.) were intravenously administered through the caudal vein with tacrolimus or Example 1, each once in the dosage indicated in Table 4 and Table 5, and an observation of general symptoms was made successively.

[3] = system: rats; settings: cited from earlier work
[4] = system: DA rats; experiment: Test on single-dose toxicity in rats
Description: as §1

For `C=CC[C@@H]1/C=C(\C)C[C@H](C)C[C@H](OC)[C@H]2O[C@@](O)(C(=O)C(=O)N3CCCC[C@H]3C(=O)O[C@H](/C(C)=C/[C@@H]3CC[C@@H](O)[C@H](OC)C3)[C@H](C)[C@@H](O)CC1=O)[C@H](C)C[C@@H]2OC` [Tacrolimus, tacrolimus], the AUC(0-inf) [1] was 5400 ng·h/mL, the Cmax [1] was 2430 ng/mL and the MRT inf [1] was 4.12 h. The Tmax [1] was 4.98 min, the half-life ([1]; read-out: T½ (converted)) was 7.51 h and the “general symptoms immediately after administration” value [2] was “a prone position, sedation, and a decrease in locomotor activity”. For the same compound, the “symptoms caused by intravenous administration” value [3] was “slight respiratory distress, a decrease in locomotor activity, a prone position, stereotyped behavior”, the “cerebral cortex pathology of dead rats” value ([4]; FIG. 7) was “neuronal vacuolation was recognized” and the lethal dose ([4]; single i.v. dose, female DA rats) was “lower than 20 mg/kg”. For the same compound, the death ([4]; single i.v. dose, tacrolimus 20 and 30 mg/kg, Example 1 20-50 mg/kg in terms of tacrolimus) was “half the animals in each group died”.
